According to PMC5640650, “NatD promotes lung cancer progression by preventing histone H4 serine phosphorylation to activate Slug expression” (Nature Communications, 2017):

Columns and labels:
A549 cells = assay: Tail vein xenograft in SCID mice, A549 cells; format: in vivo, human
Text: Fig. 3 NatD promotes lung cancer cell invasion in a xenograft mouse model. a (left) Representative bioluminescent (BLI) images acquired at the indicated time points after intravenous injection of SCID mice with Scr or NatD-KD A549 cells. NatD-KD2 cells were used because the KD2 shRNA produced a better knockdown effect. Pseudocolor heat-maps indicate intensity of bioluminescence from low (blue) to high (red) (D, day). (right) Normalized BLI signals of lung tumors of corresponding mice (n = 5 for each group) recorded at the indicated time points. Results are shown as mean ± s.d. from five mice. […] (right) Quantification of total lung bioluminescence from SCID mice as in (b) (n = 5 for each group). […]
(§1) All animal care and handling procedures were performed in accordance with the National Institutes of Health Guide for the Care and Use of Laboratory Animals, and were approved by the Institutional Review Board of Nanjing University (Nanjing, China). […] Lung nodules and progression were monitored and quantified using the bioluminescence system (Caliper IVIS Lumina XR) or by counting under a dissecting microscope. […] Mice were killed at day 28 or day 30 to collect lungs, and lung nodules in serial sections were quantified microscopically. […] Lung nodules and progression were monitored and quantified using the bioluminescence system (Caliper IVIS Lumina XR). […]

LLC cells = assay: Tail vein injection in C57BL/6 mice, LLC cells; format: in vivo, murine; conditions: 30 days, n = 5, vs Scr
Method: as §1, with “China). Female SCID mice and C57BL/6 mice (6–8 week old) were purchased from the Model Animal Research Center of Nanjing University (Nanjing, China), and were maintained under specific pathogen-free conditions at Nanjing University. The sample size was chosen with adequate power on the basis of the literature and our previous experience[46] and for each experiment it is indicated in the figure legend.” for “China).”, “XR). Mice were killed at day 14 or day 21 to collect lungs, and lung nodules in serial sections were quantified microscopically.” for “XR).”
Representative blots from three independent experiments. […] (bottom) Cell migration and invasion expressed as a percentage of Scr control. […]

NatD-KD2: Human NatD shRNA KD2: 5′-GGTTGAATGTCTCCATTGA-3′, lentiviral (shRNA lentiviral)
lung cancer growth signals (photon radiance) (A549 cells; BLI days 1-28, n = 5, vs Scr): significantly reduced | number of tumor nodules (A549 cells; day 28, n = 5, relative to Scr): decreased threefold | number of tumor nodules (LLC cells): significantly fewer tumor nodules
